From the supplement of paper PMC10307832

What was measured:
Test in all cases: relative viability (nuclei count vs DMSO), 5 days (fraction); higher = more cells survive
LC-2-ad = test system: LC-2-ad
How it was run: (§1)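 Medians of duplicate plates are given as relative viability. That measure is the nuclei count in treated wells divided by the count in vehicle wells. Counts were taken on 4× images of lung cancer cell lines in 1536-well plates, 5 days after pin-tool dosing the day after seeding with one drug alone or a fixed anchor-drug dose plus five library-drug doses (not always all listed) in √10 steps.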

NCI-H2228 = test system: NCI-H2228
How it was run: as §1

LCLC-103H = test system: LCLC-103H
How it was run: as §1

COR-L23 = test system: COR-L23
How it was run: as §1

SW 1573 = test system: SW 1573
How it was run: as §1

LU99A = test system: LU99A
How it was run: as §1

H3255 = test system: H3255
How it was run: as §1

SW 900 = test system: SW 900
How it was run: as §1

NCI-H1563 = test system: NCI-H1563
How it was run: as §1

PC-14 = test system: PC-14
How it was run: as §1

NCI-H1650 = test system: NCI-H1650
How it was run: as §1

NCI-H727 = test system: NCI-H727
How it was run: as §1

NCI-H2347 = test system: NCI-H2347
How it was run: as §1

A-427 = test system: A-427
How it was run: as §1

201T = test system: 201T
How it was run: as §1

NCI-H596 = test system: NCI-H596
How it was run: as §1

HCC-44 = test system: HCC-44
How it was run: as §1

NCI-H1793 = test system: NCI-H1793
How it was run: as §1

LCLC-97TM1 = test system: LCLC-97TM1
How it was run: as §1

NCI-H23 = test system: NCI-H23
How it was run: as §1

LK-2 = test system: LK-2
How it was run: as §1

NCI-H460 = test system: NCI-H460
How it was run: as §1

## Nc1ccn([C@@H]2O[C@H](CO)[C@@H](O)[C@@H]2O)c(=O)n1 [Cytarabine] + N=C(N)NC(=N)NCCc1ccccc1 [Phenformin] (partner 250 µM)
LC-2-ad; first compound 0.005 µM
  relative viability: 0.454
LC-2-ad; first compound 0.01581 µM
  relative viability: 0.466
LC-2-ad; first compound 0.05 µM
  relative viability: 0.49
LC-2-ad; first compound 0.1581 µM
  relative viability: 0.344
LC-2-ad; first compound 0.5 µM
  relative viability: 0.261
NCI-H2228; first compound 0.005 µM
  relative viability: 0.25
NCI-H2228; first compound 0.01581 µM
  relative viability: 0.197
NCI-H2228; first compound 0.05 µM
  relative viability: 0.182
NCI-H2228; first compound 0.1581 µM
  relative viability: 0.118
NCI-H2228; first compound 0.5 µM
  relative viability: 0.112
LCLC-103H; first compound 0.005 µM
  relative viability: 0.332
LCLC-103H; first compound 0.01581 µM
  relative viability: 0.365
LCLC-103H; first compound 0.05 µM
  relative viability: 0.335
LCLC-103H; first compound 0.1581 µM
  relative viability: 0.31
LCLC-103H; first compound 0.5 µM
  relative viability: 0.311
COR-L23; first compound 0.005 µM
  relative viability: 0.328
COR-L23; first compound 0.01581 µM
  relative viability: 0.325
COR-L23; first compound 0.05 µM
  relative viability: 0.3
COR-L23; first compound 0.1581 µM
  relative viability: 0.146
COR-L23; first compound 0.5 µM
  relative viability: 0.137
SW 1573; first compound 0.005 µM
  relative viability: 0.342
SW 1573; first compound 0.01581 µM
  relative viability: 0.287
SW 1573; first compound 0.05 µM
  relative viability: 0.218
SW 1573; first compound 0.1581 µM
  relative viability: 0.131
SW 1573; first compound 0.5 µM
  relative viability: 0.109
LU99A; first compound 0.005 µM
  relative viability: 1.07
LU99A; first compound 0.01581 µM
  relative viability: 0.747
LU99A; first compound 0.05 µM
  relative viability: 0.871
LU99A; first compound 0.1581 µM
  relative viability: 0.775
LU99A; first compound 0.5 µM
  relative viability: 0.808
H3255; first compound 0.005 µM
  relative viability: 0.301
H3255; first compound 0.01581 µM
  relative viability: 0.336
H3255; first compound 0.05 µM
  relative viability: 0.296
H3255; first compound 0.1581 µM
  relative viability: 0.25
H3255; first compound 0.5 µM
  relative viability: 0.273
SW 900; first compound 0.005 µM
  relative viability: 0.472
SW 900; first compound 0.01581 µM
  relative viability: 0.395
SW 900; first compound 0.05 µM
  relative viability: 0.367
SW 900; first compound 0.1581 µM
  relative viability: 0.18
SW 900; first compound 0.5 µM
  relative viability: 0.155
NCI-H1563; first compound 0.005 µM
  relative viability: 0.548
NCI-H1563; first compound 0.01581 µM
  relative viability: 0.642
NCI-H1563; first compound 0.05 µM
  relative viability: 0.706
NCI-H1563; first compound 0.1581 µM
  relative viability: 0.56
NCI-H1563; first compound 0.5 µM
  relative viability: 0.567
PC-14; first compound 0.005 µM
  relative viability: 0.499
PC-14; first compound 0.01581 µM
  relative viability: 0.316
PC-14; first compound 0.05 µM
  relative viability: 0.259
PC-14; first compound 0.1581 µM
  relative viability: 0.0817
PC-14; first compound 0.5 µM
  relative viability: 0.0908
NCI-H1650; first compound 0.005 µM
  relative viability: 0.386
NCI-H1650; first compound 0.01581 µM
  relative viability: 0.263
NCI-H1650; first compound 0.05 µM
  relative viability: 0.252
NCI-H1650; first compound 0.1581 µM
  relative viability: 0.177
NCI-H1650; first compound 0.5 µM
  relative viability: 0.125
NCI-H727; first compound 0.005 µM
  relative viability: 0.451
NCI-H727; first compound 0.01581 µM
  relative viability: 0.479
NCI-H727; first compound 0.05 µM
  relative viability: 0.486
NCI-H727; first compound 0.1581 µM
  relative viability: 0.406
NCI-H727; first compound 0.5 µM
  relative viability: 0.429
NCI-H2347; first compound 0.005 µM
  relative viability: 0.381
NCI-H2347; first compound 0.01581 µM
  relative viability: 0.383
NCI-H2347; first compound 0.05 µM
  relative viability: 0.296
NCI-H2347; first compound 0.1581 µM
  relative viability: 0.273
NCI-H2347; first compound 0.5 µM
  relative viability: 0.291
A-427; first compound 0.005 µM
  relative viability: 0.255
A-427; first compound 0.01581 µM
  relative viability: 0.188
A-427; first compound 0.05 µM
  relative viability: 0.207
A-427; first compound 0.5 µM
  relative viability: 0.153
201T; first compound 0.005 µM
  relative viability: 0.369
201T; first compound 0.01581 µM
  relative viability: 0.432
201T; first compound 0.05 µM
  relative viability: 0.428
201T; first compound 0.1581 µM
  relative viability: 0.352
201T; first compound 0.5 µM
  relative viability: 0.356
NCI-H596; first compound 0.005 µM
  relative viability: 0.801
NCI-H596; first compound 0.01581 µM
  relative viability: 0.613
NCI-H596; first compound 0.05 µM
  relative viability: 0.694
NCI-H596; first compound 0.1581 µM
  relative viability: 0.624
NCI-H596; first compound 0.5 µM
  relative viability: 0.447
HCC-44; first compound 0.005 µM
  relative viability: 0.161
HCC-44; first compound 0.01581 µM
  relative viability: 0.15
HCC-44; first compound 0.05 µM
  relative viability: 0.142
HCC-44; first compound 0.1581 µM
  relative viability: 0.113
HCC-44; first compound 0.5 µM
  relative viability: 0.108
NCI-H1793; first compound 0.005 µM
  relative viability: 0.359
NCI-H1793; first compound 0.01581 µM
  relative viability: 0.34
NCI-H1793; first compound 0.05 µM
  relative viability: 0.284
NCI-H1793; first compound 0.1581 µM
  relative viability: 0.251
NCI-H1793; first compound 0.5 µM
  relative viability: 0.216
LCLC-97TM1; first compound 0.005 µM
  relative viability: 0.426
LCLC-97TM1; first compound 0.01581 µM
  relative viability: 0.34
LCLC-97TM1; first compound 0.05 µM
  relative viability: 0.354
LCLC-97TM1; first compound 0.1581 µM
  relative viability: 0.201
LCLC-97TM1; first compound 0.5 µM
  relative viability: 0.168
NCI-H23; first compound 0.005 µM
  relative viability: 0.784
NCI-H23; first compound 0.01581 µM
  relative viability: 0.649
NCI-H23; first compound 0.05 µM
  relative viability: 0.721
NCI-H23; first compound 0.1581 µM
  relative viability: 0.367
NCI-H23; first compound 0.5 µM
  relative viability: 0.156
LK-2; first compound 0.005 µM
  relative viability: 0.357
LK-2; first compound 0.01581 µM
  relative viability: 0.247
LK-2; first compound 0.05 µM
  relative viability: 0.288
LK-2; first compound 0.1581 µM
  relative viability: 0.149
LK-2; first compound 0.5 µM
  relative viability: 0.196
NCI-H460; first compound 0.005 µM
  relative viability: 0.309
NCI-H460; first compound 0.01581 µM
  relative viability: 0.248
NCI-H460; first compound 0.05 µM
  relative viability: 0.114
NCI-H460; first compound 0.1581 µM
  relative viability: 0.0419
NCI-H460; first compound 0.5 µM
  relative viability: 0.0341
